The values that follow come from ChEMBL document CHEMBL3875185, “Structure-anticonvulsant activity studies in the group of (E)-N-cinnamoyl aminoalkanols derivatives monosubstituted in phenyl ring with 4-Cl, 4-CH3 or 2-CH3” (Bioorg Med Chem, 2017).

Each structure is given as a SMILES string. The source made the active and inactive calls. No cut-off for these calls is given here.

Data set [1] has as its system Mus musculus. Put plainly: Anticonvulsant activity in 6-Hz induced seizure mouse model assessed as restoration of normal activity within 10 secs from stimulation at 100 mg/kg, ip at 32 mA measured at […] post dose. The format is functional, organism-based.
Data set [2] addresses T1, Muscarinic acetylcholine receptor M4 (Homo sapiens) (UniProt P08173).
T1 sequence (whole entry): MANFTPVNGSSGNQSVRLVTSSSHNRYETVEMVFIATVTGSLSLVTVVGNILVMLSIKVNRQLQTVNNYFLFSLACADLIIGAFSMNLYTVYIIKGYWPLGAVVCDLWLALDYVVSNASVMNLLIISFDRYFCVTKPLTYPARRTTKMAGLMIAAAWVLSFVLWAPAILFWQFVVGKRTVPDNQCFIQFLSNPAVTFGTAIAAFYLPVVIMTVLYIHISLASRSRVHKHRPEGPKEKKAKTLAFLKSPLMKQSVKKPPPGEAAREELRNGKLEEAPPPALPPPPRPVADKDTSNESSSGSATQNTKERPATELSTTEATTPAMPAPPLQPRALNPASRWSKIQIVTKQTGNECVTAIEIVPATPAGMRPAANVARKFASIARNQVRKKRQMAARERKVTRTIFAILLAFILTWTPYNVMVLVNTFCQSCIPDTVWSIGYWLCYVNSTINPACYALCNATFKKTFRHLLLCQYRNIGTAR
Briefly: Displacement of [3H]4-DAMP from human recombinant M4 receptor expressed in CHO cells at 100 uM measured after 60 mins by scintillation counting method relative to control. The format is cell-based. A general note: Loss of bound radioactivity is the signal in a displacement assay; it reports binding, not function.

Data set [3] deals with Rattus norvegicus. Put plainly: Anticonvulsant activity in ip dosed pentylenetetrazole induced seizure Sprague-Dawley rat model assessed as no observable episode of clonic convulsion of at least 5 secs. It counts as functional.
Data set [4] concerns the target Prostacyclin receptor (Homo sapiens) (UniProt P43119). Briefly: Displacement of [3H]iloprost from human recombinant IP receptor expressed in HEK293 cells at 100 uM measured after 60 mins by scintillation counting method relative to control. The format is cell-based.
Data set [5] deals with Rattus norvegicus. Briefly: Anticonvulsant activity in ip dosed pentylenetetrazole induced seizure Sprague-Dawley rat model assessed as no observable episode of clonic convulsion of at least 5 secs by measuring time to peak effect. The format is functional.
Data set [6] deals with D(3) dopamine receptor (Homo sapiens) (UniProt P35462). Briefly: Displacement of [3H]methyl-spiperone from human recombinant dopamine D3 receptor expressed in CHO cells at 100 uM measured after 60 mins by scintillation counting method relative to control. The format is cell-based.
Sequence of D(3) dopamine receptor (Homo sapiens) (P35462 whole entry): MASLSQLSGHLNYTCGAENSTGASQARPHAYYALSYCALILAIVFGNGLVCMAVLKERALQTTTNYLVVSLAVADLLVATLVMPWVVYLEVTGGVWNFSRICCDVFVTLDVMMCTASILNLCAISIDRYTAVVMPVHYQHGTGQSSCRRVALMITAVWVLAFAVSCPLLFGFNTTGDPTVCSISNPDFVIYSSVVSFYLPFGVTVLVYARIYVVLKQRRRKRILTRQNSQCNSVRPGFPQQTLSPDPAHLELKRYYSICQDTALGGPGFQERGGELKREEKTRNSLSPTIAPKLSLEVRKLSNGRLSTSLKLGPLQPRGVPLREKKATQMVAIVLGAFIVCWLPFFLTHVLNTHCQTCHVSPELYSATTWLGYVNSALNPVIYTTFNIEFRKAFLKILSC
Data set [7] concerns Mus musculus. Briefly: Neurotoxicity in mouse assessed as induction of motor impairment at 30 mg/kg, ip measured at 4 hrs post dose by rotarod method. It counts as toxicity, organism-based. The settings on record: in vivo. On the technique in general: In the rotarod test animals must keep their balance on a rotating rod.
In data set [8] the test system is Mus musculus. Briefly: Anticonvulsant activity in ip dosed pentylenetetrazole induced seizure mouse model assessed as no observable episode of clonic convulsion of at least 5 secs. The format is functional.
Data set [9] deals with Mus musculus. Put plainly: Anticonvulsant activity in ip dosed pentylenetetrazole induced seizure mouse model assessed as no observable episode of clonic convulsion of at least 5 secs by measuring time to peak effect. The format is functional.
In data set [10] the target is Sodium-dependent serotonin transporter (Homo sapiens) (UniProt P31645). Put plainly: Displacement of [3H]imipramine from human recombinant 5HT transporter expressed in CHO cells at 100 uM measured after 60 mins by scintillation counting method relative to control. The format is cell-based.
Sequence of Sodium-dependent serotonin transporter (Homo sapiens) (P31645 whole entry, looked up): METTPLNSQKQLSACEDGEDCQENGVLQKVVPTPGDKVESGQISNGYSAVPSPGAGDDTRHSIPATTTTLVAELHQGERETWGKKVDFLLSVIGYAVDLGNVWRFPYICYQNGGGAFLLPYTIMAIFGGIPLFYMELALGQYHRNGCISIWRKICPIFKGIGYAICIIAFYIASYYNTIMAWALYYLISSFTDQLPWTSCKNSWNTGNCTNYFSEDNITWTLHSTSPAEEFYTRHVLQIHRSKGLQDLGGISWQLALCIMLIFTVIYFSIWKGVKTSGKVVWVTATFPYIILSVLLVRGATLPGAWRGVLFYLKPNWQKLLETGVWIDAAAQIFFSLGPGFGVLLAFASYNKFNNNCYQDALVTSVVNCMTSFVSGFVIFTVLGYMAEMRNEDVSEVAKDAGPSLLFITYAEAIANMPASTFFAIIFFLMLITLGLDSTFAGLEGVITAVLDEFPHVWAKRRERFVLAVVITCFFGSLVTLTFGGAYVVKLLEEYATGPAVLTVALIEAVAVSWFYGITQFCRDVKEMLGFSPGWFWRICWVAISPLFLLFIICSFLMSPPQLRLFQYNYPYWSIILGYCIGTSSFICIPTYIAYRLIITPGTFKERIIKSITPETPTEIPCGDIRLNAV
Data set [11] has as its target Adrenergic receptor alpha-1 (Rattus norvegicus) (UniProt P15823+P23944+P43140). Put plainly: Displacement of [3H]prazosin from rat cerebral cortex alpha-1 adrenergic receptor at 100 uM measured after 60 mins by scintillation counting method relative to control.
Data set [12] concerns Rattus norvegicus. Put plainly: Anticonvulsant activity in ip dosed maximal electroshock induced seizure Sprague-Dawley rat model assessed as suppression in hindlimb tonic extension by measuring time to peak effect. The format is functional. For orientation: In the maximal electroshock model the usual endpoint is tonic extension of the hind limbs.
The subject of data set [13] is Mus musculus. Briefly: Anticonvulsant activity in ip dosed 6-Hz induced seizure mouse model assessed as restoration of normal activity within 10 secs from stimulation by measuring time to peak effect at 32 mA. It counts as functional.
The target of data set [14] is 5-hydroxytryptamine receptor 6 (Homo sapiens) (UniProt P50406). Put plainly: Displacement of [3H]LSD from human recombinant 5HT6 receptor expressed in CHO cells at 100 uM measured after 120 mins by scintillation counting method relative to control. The format is cell-based.
Sequence of 5-hydroxytryptamine receptor 6 (Homo sapiens) (P50406 whole entry): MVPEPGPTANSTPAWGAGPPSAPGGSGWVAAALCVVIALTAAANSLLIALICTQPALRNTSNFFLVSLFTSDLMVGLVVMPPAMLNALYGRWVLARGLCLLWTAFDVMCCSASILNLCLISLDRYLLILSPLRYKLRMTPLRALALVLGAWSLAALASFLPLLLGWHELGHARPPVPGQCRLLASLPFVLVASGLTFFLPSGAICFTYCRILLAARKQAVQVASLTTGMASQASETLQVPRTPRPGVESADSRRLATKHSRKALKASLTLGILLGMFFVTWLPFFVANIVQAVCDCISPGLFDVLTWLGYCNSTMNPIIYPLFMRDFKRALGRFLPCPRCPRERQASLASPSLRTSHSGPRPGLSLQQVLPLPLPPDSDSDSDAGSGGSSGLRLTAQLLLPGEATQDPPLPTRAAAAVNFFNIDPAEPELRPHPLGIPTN
Data set [15] concerns the target Melanocortin receptor 4 (Homo sapiens) (UniProt P32245). Briefly: Displacement of [125I]NDP-a-MSH from human recombinant MC4 receptor expressed in CHO cells at 100 uM measured after 120 mins by scintillation counting method relative to control. The format is cell-based.
Data set [16] concerns the target T2, Endothelin receptor type B (Homo sapiens) (UniProt P24530).
T2 sequence (whole entry): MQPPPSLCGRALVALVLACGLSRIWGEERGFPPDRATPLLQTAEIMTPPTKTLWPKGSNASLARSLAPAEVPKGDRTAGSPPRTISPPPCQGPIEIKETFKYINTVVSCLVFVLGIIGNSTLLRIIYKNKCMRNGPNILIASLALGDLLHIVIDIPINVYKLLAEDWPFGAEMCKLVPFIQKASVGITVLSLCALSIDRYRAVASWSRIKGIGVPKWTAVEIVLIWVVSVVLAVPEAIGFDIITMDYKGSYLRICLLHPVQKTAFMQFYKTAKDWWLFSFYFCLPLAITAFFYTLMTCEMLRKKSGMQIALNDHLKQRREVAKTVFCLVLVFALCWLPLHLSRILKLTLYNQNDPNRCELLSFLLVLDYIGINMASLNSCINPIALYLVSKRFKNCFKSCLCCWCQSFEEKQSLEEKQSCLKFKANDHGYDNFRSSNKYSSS
Put plainly: Displacement of [125I]endothelin-1 from human recombinant ETB receptor expressed in CHO cells at 100 uM measured after 120 mins by scintillation counting method relative to control. The format is cell-based.

Data set [17] has as its target Delta-type opioid receptor (Homo sapiens) (UniProt P41143). Briefly: Displacement of [3H]DADLE from human recombinant delta opioid receptor expressed in CHO cells at 100 uM measured after 120 mins by scintillation counting method relative to control. It counts as cell-based.
Data set [18] has as its target T3, Muscarinic acetylcholine receptor M5 (Homo sapiens) (UniProt P08912).
T3 sequence (whole entry): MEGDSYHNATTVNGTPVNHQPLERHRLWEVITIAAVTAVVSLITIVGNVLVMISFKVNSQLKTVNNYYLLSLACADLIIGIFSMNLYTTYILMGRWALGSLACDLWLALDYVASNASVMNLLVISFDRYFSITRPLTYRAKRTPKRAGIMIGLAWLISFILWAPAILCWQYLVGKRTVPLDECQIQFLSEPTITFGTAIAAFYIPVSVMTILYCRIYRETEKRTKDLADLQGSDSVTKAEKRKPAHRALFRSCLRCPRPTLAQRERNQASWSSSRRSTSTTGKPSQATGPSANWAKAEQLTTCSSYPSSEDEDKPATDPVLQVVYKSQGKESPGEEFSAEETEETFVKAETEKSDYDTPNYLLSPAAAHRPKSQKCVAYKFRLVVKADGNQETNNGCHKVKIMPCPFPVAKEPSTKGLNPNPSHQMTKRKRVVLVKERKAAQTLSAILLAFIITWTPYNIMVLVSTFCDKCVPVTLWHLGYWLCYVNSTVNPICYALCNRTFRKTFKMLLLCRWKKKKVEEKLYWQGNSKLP
Briefly: Displacement of [3H]4-DAMP from human recombinant M5 receptor expressed in CHO cells at 100 uM measured after 60 mins by scintillation counting method relative to control. It counts as cell-based.

Sequence of Melanocortin receptor 4 (Homo sapiens) (P32245 whole entry): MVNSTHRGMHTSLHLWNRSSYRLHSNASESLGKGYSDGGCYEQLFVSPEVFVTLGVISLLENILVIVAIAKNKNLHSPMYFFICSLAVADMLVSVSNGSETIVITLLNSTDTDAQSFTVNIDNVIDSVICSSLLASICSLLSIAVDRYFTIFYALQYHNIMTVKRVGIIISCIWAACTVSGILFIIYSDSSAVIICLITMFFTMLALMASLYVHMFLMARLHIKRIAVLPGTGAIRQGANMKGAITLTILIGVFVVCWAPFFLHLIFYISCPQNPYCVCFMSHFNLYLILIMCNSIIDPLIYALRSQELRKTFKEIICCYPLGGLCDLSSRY
Sequence of Prostacyclin receptor (Homo sapiens) (P43119 whole entry): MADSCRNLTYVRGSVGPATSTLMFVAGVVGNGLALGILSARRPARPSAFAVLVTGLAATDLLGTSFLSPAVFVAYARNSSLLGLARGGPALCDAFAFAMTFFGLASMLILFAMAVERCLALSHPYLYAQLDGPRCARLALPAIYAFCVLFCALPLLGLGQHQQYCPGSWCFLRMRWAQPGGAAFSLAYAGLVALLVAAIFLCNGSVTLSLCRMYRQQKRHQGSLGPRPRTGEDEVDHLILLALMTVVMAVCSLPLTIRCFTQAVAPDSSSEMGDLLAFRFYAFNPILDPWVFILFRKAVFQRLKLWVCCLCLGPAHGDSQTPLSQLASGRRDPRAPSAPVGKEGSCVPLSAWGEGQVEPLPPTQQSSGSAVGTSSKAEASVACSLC
Sequence of Delta-type opioid receptor (Homo sapiens) (P41143 whole entry): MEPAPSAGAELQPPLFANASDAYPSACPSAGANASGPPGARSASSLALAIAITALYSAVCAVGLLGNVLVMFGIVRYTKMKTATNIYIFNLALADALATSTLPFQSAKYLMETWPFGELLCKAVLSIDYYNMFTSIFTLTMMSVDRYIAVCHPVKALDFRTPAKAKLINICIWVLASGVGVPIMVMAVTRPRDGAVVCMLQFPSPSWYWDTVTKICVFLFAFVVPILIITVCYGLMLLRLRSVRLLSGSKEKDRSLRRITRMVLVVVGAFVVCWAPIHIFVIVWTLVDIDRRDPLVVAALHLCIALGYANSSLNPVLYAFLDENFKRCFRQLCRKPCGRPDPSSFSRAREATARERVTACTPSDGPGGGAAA

By inhibition is commonly meant the relative decrease from the control value, in per cent. For orientation: ED50 means the midpoint of the dose-response relation. Regarding `Cc1ccccc1/C=C/C(=O)N[C@@H](C)CO`, in the data set on Mus musculus [1], the result was Active. Further, the inhibition in data set [2] was -3.2%; in [4], -5%; in data set [6], 7.2%; in data set [10], 0.9%; in data set [11] it was 11.5%; in data set [14], 7%. The inhibition in [15] is 7.9%; in data set [16], -8.2%; in data set [17], 3%; in data set [18] it was -7.5%. For the same molecule, the values for the ED50 in the data set with Rattus norvegicus [3] and with Mus musculus [8] were 24.6 mg/kg and 58.4 mg/kg, respectively. Besides, the Time in the data set with Rattus norvegicus [5], with Mus musculus [9], in the data set on Rattus norvegicus [12] and in the data set with Mus musculus [13] was 0.25 h throughout. Besides, the Activity entry in the data set on Mus musculus [7] is listed as “Non-Toxic”.

For `CCC(CO)NC(=O)/C=C/c1ccc(Cl)cc1` (centres undefined), the result in the data set on Mus musculus [1] was Active. Further, the inhibition in [2] was 1.7%; in data set [4], 2.3%; in [6] it was 18.2%; in data set [10], -2.5%; in data set [11], 9.9%; in data set [14], 3.7%. In addition, the inhibition in [15] was -3.1%; in data set [16] it was -10%; in [17], 6%; in data set [18] it was -9.2%. Also, the results for the ED50 in the data set with Rattus norvegicus [3] and with Mus musculus [8] were 64.4 mg/kg and 90.3 mg/kg, respectively. For the same molecule, the Time came out at 0.5 h with Rattus norvegicus [5], 0.25 h with Mus musculus [9], 0.5 h with Rattus norvegicus [12] and 0.25 h in the data set with Mus musculus [13]. For the same molecule, the Activity entry with Mus musculus [7] is on record as “Non-Toxic”.

Turning to `CC(O)CNC(=O)/C=C/c1ccc(Cl)cc1` (centres undefined), the result in the data set on Mus musculus [1] was Active. Besides, the inhibition in [2] is 8.9%; in data set [4] it was 1%; in [6] it was 17.4%; in [10], -1.9%; in [11], 17.3%; in data set [14], 4.6%. In addition, the inhibition in data set [15] is 0.9%; in [16], -4.6%; in data set [17] it was 3.2%; in data set [18], -5.9%. In addition, the figures for the ED50 in the data set with Rattus norvegicus [3] and with Mus musculus [8] were 56 mg/kg and 102 mg/kg, respectively. The Time with Rattus norvegicus [5], in the data set with Mus musculus [9], with Rattus norvegicus [12] and in the data set on Mus musculus [13] was 0.5 h throughout. Besides, the Activity entry with Mus musculus [7] is listed as “Non-Toxic”.
